SMILES strings stand for the structures.

Chain of PARP-1 (P09874 whole entry, species assumed): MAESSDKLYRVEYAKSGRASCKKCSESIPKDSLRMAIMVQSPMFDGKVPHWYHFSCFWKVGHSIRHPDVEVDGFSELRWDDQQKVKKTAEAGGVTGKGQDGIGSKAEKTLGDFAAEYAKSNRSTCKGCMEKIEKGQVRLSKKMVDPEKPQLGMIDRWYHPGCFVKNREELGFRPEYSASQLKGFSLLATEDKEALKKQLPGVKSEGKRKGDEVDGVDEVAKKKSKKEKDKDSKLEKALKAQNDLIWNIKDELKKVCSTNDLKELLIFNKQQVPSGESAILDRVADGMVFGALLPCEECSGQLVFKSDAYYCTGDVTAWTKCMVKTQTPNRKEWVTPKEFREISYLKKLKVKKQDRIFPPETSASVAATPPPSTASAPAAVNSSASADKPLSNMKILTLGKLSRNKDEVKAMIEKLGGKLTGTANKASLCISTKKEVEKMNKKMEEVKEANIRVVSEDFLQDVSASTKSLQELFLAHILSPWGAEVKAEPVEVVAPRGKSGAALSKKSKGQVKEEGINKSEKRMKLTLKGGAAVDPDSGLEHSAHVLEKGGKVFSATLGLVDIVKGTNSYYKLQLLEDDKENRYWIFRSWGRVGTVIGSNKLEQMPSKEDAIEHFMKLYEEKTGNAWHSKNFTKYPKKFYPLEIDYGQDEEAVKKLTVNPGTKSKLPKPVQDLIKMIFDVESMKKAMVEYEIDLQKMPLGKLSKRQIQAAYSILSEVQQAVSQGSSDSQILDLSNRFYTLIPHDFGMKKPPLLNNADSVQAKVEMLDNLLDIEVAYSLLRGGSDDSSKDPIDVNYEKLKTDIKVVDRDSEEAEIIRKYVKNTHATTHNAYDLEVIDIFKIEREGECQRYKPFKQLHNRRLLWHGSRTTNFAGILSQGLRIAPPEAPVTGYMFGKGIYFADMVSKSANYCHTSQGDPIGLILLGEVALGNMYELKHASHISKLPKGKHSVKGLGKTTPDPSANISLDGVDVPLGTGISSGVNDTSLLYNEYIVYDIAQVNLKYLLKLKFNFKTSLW

This assay has as its target PARP-1 (Homo sapiens, UniProt P09874). Put plainly: Inhibition of PARP by Compounds Having Formula I. Format: biochemical.
As usually defined, the Ki is a dissociation constant, usually derived from enzyme kinetics or from competition with a known ligand. A low value points to a stronger hold on the target. Molecule `NC(=O)c1cccc2sc(-c3ccc(OS(=O)(=O)C(F)(F)F)cc3)nc12` [Example 1, 4-[4-(aminocarbonyl)-1,3-benzothiazol-2-yl]phenyl trifluoromethanesulfonate] displayed a Ki of 45 nM.

Regarding `NC(=O)c1cccc2sc(-c3ccc(-c4ccccc4)cc3)nc12` [Example 2, 2-(1,1′-biphenyl-4-yl)-1,3-benzothiazole-4-carboxamide], affinity was put at a Ki of 316 nM.

Regarding `NC(=O)c1cccc2sc(-c3ccc(-c4cccnc4)cc3)nc12` [Example 3, 2-(4-pyridin-3-ylphenyl)-1,3-benzothiazole-4-carboxamide], the affinity corresponds to a Ki of 9.5 nM.

On to `NC(=O)c1cccc2sc(-c3ccc(-c4ccncc4)cc3)nc12` [Example 4, 2-(4-pyridin-4-ylphenyl)-1,3-benzothiazole-4-carboxamide], for which the inhibition constant (Ki) was 26 nM. Against the preceding molecule, the Ki is about 2.7-fold higher.

Values taken from patent US8093396B2, “Benzthiazole inhibitors of poly(ADP-ribose)polymerase” (Abbott Laboratories, priority 2009, dated 2012).
